Results published in PubChem BioAssay (NCI).
Values joined by “and” are separate entries in the source; they are usually repeats but may differ in a detail not shown here. Equal entries are not always repeated.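 Test compounds were applied to cells in 96-well plates for 48 hours at 5 doses. At the GI50, growth is halved. TGI is the concentration that stops growth completely.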 Where a SMILES comes first, the peptide text is derived from it. The star is where a group is joined. Boc = CC(C)(C)OC(=O)*

Key:
Test in all cases: NCI-60 cell line screen, 48 h
A549 NSCLC = tested on: A549 NSCLC
CAKI-1 renal = tested on: CAKI-1 renal
EKVX NSCLC = tested on: EKVX NSCLC
K-562 leukemia = tested on: K-562 leukemia
NCI-H23 lung = tested on: NCI-H23 lung
NCI-H460 lung = tested on: NCI-H460 lung
SK-MEL-28 melanoma = tested on: SK-MEL-28 melanoma
T-47D breast = tested on: T-47D breast
UACC-62 melanoma = tested on: UACC-62 melanoma
LOX IMVI melanoma = tested on: LOX IMVI melanoma

SMILES	TGI (A549 NSCLC) [µM]	TGI (CAKI-1 renal) [µM]	TGI (EKVX NSCLC) [µM]	TGI (K-562 leukemia) [µM]	TGI (NCI-H23 lung) [µM]	TGI (NCI-H460 lung)	TGI (SK-MEL-28 melanoma) [µM]	TGI (T-47D breast) [µM]	TGI (UACC-62 melanoma) [µM]	TGI (LOX IMVI melanoma) [µM]	GI50 (A549 NSCLC) [µM]	GI50 (CAKI-1 renal) [µM]	GI50 (EKVX NSCLC) [µM]	GI50 (K-562 leukemia) [µM]	GI50 (LOX IMVI melanoma) [µM]	GI50 (NCI-H23 lung) [µM]	GI50 (NCI-H460 lung) [µM]	GI50 (SK-MEL-28 melanoma) [µM]	GI50 (UACC-62 melanoma) [µM]
Cc1c(Cl)nc(Nc2nc3ccccc3[nH]2)nc1Cl	> 100	71.9	84.5	> 100	> 100	> 100 µM	> 100	> 100	> 100	–	–	–	–	–	–	–	–	–	–
CCCN1C(=O)CC(C)N(Cc2ccccc2Cl)C1=S (stereo not given)	> 100	> 100	93.7	–	56.7	> 100 µM	62.4	44.1	46.3	54.9	–	–	–	–	–	–	–	–	–
Cc1ccsc1/C=N/Nc1nc2ccccc2s1	50.5	36.1	41.9	34.9	> 100	–	> 100	> 100	> 100	> 100	–	–	–	–	–	–	–	–	–
COC(=O)/C(=C\Nc1cccc(C)n1)S(=O)(=O)c1ccc(C)cc1	> 100	–	–	75.5	> 100	> 100 µM	> 100	> 100	91.5	> 100	–	–	–	–	–	–	–	–	–
CC(O)c1cc2c(s1)C(=O)c1sccc1C2=O (stereo not given)	0.767	1.19	0.674	> 100	–	0.268 µM	0.479	0.879	0.126	0.29	–	–	–	–	–	–	–	–	–
CCOC(=O)c1cc(-c2cc(OC)c(OC)c([N+](=O)[O-])c2)c([N+](=O)[O-])n1C	> 10	–	> 10	> 10	> 10	> 10 µM	–	–	> 10	–	–	–	–	–	–	–	–	–	–
C[C@]12CCC(=O)C=C1CC[C@@H]1[C@@H]2[C@@H](O)C[C@@]2(C)[C@H]1CC[C@]2(O)C(=O)COC(=O)COCC(=O)O	> 100	> 100	> 100	> 100	> 100	> 100 µM	> 100	–	> 100	> 100	–	–	–	–	–	–	–	–	–
CN(C)c1ccc(C(=C(c2ccc(N(C)C)cc2)c2ccc(N(C)C)cc2)c2ccc(N(C)C)cc2)cc1	31.4	28	34.4	36.9	33.6	32.3 µM	29.4	–	36.1	31.2	–	–	–	–	–	–	–	–	–
COC(=O)C(Cc1c[nH]c2ccccc12)NC(=O)C(Cc1c[nH]c2ccccc12)NC(=O)C(Cc1c[nH]c2ccccc12)NC(=O)C(Cc1c[nH]c2ccccc12)NC(=O)C(Cc1c[nH]c2ccccc12)NC(=O)C(Cc1c[nH]c2ccccc12)NC(=O)OC(C)(C)C (stereo not given) (Boc-WWWWWW-OMe; configuration not given here)	> 100	> 100	–	> 100	> 100	> 100 µM	31.1	> 100	> 100	> 100	–	–	–	–	–	–	–	–	–
COc1cc2c(cc1OC)C(C(CO)CO)N(CC(O)CCl)CC2 (stereo not given)	> 100	> 100	> 100	> 100	> 100	> 100 µM	> 100	–	> 100	> 100	–	–	–	–	–	–	–	–	–
O=C(O)c1cc2ccccc2c(N=Nc2ccc(S(=O)(=O)Nc3nccs3)cc2)c1O	> 100	> 100	> 100	> 100	> 100	> 100 µM	> 100	> 100	> 100	–	–	–	–	–	–	–	–	–	–
O=C(/N=C/c1c(O)c2ccccc2oc1=O)Nc1ccccc1	> 100	55.3	> 100	> 100	> 100	> 100 µM	> 100	–	> 100	> 100	–	–	–	–	–	–	–	–	–
O=S(=O)(c1ccccc1)n1c2ccc(Br)cc2c2nc3ccccc3nc21	> 100	> 100	–	> 100	> 100	> 100 µM	> 100	> 100	> 100	> 100	–	–	–	–	–	–	–	–	–
COc1ccc(-c2cc(=O)c3cc4c(cc3[nH]2)OCO4)cc1OC	> 100	> 100	> 100	> 100	> 100	> 100 µM	> 100	–	> 100	> 100	–	–	–	–	–	–	–	–	–
COC(=O)/C=C\n1c(C)cc(=O)[nH]c1=O	> 100	–	> 100	> 100	> 100	> 100 µM	> 100	> 100	> 100	–	–	–	–	–	–	–	–	–	–
Cn1c(=O)c(C(=O)Nc2nc(C34CC5CC(CC(C5)C3)C4)cs2)c(O)c2ccccc21	> 100	> 100	> 100	> 100	> 100	> 100 µM	> 100	–	–	> 100	–	–	–	–	–	–	–	–	–
N#CC1=C(N)n2c(s/c(=C\c3ccc(Cl)cc3)c2=O)=C(c2nc3ccccc3[nH]2)C1c1ccc(Cl)cc1 (stereo not given)	10.9	10.7	3.52	4.94	1.58	8.03 µM	3.03	–	2.92	3.23	–	–	–	–	–	–	–	–	–
COC(=O)C1=C(C(=O)OC)C(C(=O)c2ccc(Br)cc2)N2N=C(c3ccc(Cl)cc3)C=CC12 (stereo not given)	> 100	> 100	> 100	> 100	> 100	> 100 µM	> 100	–	> 100	> 100	–	–	–	–	–	–	–	–	–
NC(N)=N/N=C/c1nc2n(c1[N+](=O)[O-])CCS2	> 100	> 100	76.5	–	42.6	48.4 µM	> 100	67.4	> 100	92.6	–	–	–	–	–	–	–	–	–
O=[N+]([O-])C1CC/C(=N/O)c2nonc21 (stereo not given)	> 10	> 10	> 10	> 10	> 10	> 10 µM	> 10	> 10	> 10	–	–	–	–	–	–	–	–	–	–
CCN(CC)CC1CCCCN1CC(=O)N1c2ccccc2NC(=O)CC1C (stereo not given)	> 100	> 100	> 100	> 100	> 100	> 100 µM	> 100	> 100	–	> 100	–	–	–	–	–	–	–	–	–
COC(=O)c1c(O)ccc2c1c1c(n2Cc2ccccc2Cl)C(=O)c2ccccc2C1=O	26.7	27.4	32.5	97.3	29.8	23.5 µM	29.4	27.4	30.2	–	–	–	–	–	–	–	–	–	–
CC(=O)OCCOCn1c2c(c(=S)[nH]c1=O)CCC2	> 100	> 100	> 100	> 100	> 100	–	> 100	–	–	> 100	–	–	–	–	–	–	–	–	–

SMILES	TGI (A549 NSCLC) [µM]	TGI (CAKI-1 renal) [µM]	TGI (EKVX NSCLC) [µM]	TGI (K-562 leukemia) [µM]	TGI (NCI-H23 lung) [µM]	TGI (NCI-H460 lung)	TGI (SK-MEL-28 melanoma) [µM]	TGI (T-47D breast) [µM]	TGI (UACC-62 melanoma) [µM]	TGI (LOX IMVI melanoma) [µM]	GI50 (A549 NSCLC) [µM]	GI50 (CAKI-1 renal) [µM]	GI50 (EKVX NSCLC) [µM]	GI50 (K-562 leukemia) [µM]	GI50 (LOX IMVI melanoma) [µM]	GI50 (NCI-H23 lung) [µM]	GI50 (NCI-H460 lung) [µM]	GI50 (SK-MEL-28 melanoma) [µM]	GI50 (UACC-62 melanoma) [µM]
CCOP(=O)(OCC)/C(C#N)=C/c1cn(C)cn1	> 100	> 100	> 100	> 100	> 100	> 100 µM	> 100	–	> 100	–	–	–	–	–	–	–	–	–	–
CCC(CON(C)c1ccccc1)(SC)SC	> 100	> 100	> 100	–	> 100	> 100 µM	> 100	> 100	> 100	> 100	–	–	–	–	–	–	–	–	–
O=c1[nH]c(=O)n(C2OC(COP(=O)(O)OP(=O)(O)OC3OC(CO)C(O)C(O)C3O)C(O)C2O)cc1F (stereo not given)	8.56	18.3	> 100	> 100	> 31.5	0.429 µM	> 100	–	3.16	4.13	–	–	–	–	–	–	–	–	–
NC(CCCC(N)P(=O)(O)c1ccccc1)P(=O)(O)c1ccccc1 (stereo not given)	> 261	–	> 261	> 261	> 261	> 261 µM	> 261	–	> 261	> 261	–	–	–	–	–	–	–	–	–
Cc1ccc(N2Cc3c(ccc4ccccc34)OP2(=O)Oc2ccc(Cl)c(C)c2)cc1 (stereo not given)	> 100	> 100	> 100	> 100	> 100	> 100 µM	> 100	–	> 100	> 100	–	–	–	–	–	–	–	–	–
CC(C)OP(=O)(OC(C)C)/C(I)=N/Nc1ccc([N+](=O)[O-])cc1	> 100	> 100	> 100	> 100	> 100	> 100 µM	> 100	–	> 100	–	–	–	–	–	–	–	–	–	–
O=C1CC2(c3ccccc3)ON=C(c3ccccc3)N2c2ccccc2N1 (stereo not given)	–	–	> 100	> 100	> 100	> 100 µM	> 100	> 100	> 100	> 100	–	–	–	–	–	–	–	–	–
Oc1ccc(-c2nc(-c3cccnc3)c(-c3ccc(Cl)cc3)[nH]2)cc1O	54.1	46.7	50.2	> 100	23.9	–	36.2	37.9	23.3	30.1	–	–	–	–	–	–	–	–	–
N[C@H](C(=O)O)[C@H]1ON=C(Cl)[C@@H]1O	> 550	205	> 550	> 550	> 550	> 52.9 µM and 174 µM	> 550	–	> 550	> 550	3.79	4.06	11.2	4.15	1.54	5.09	3.92	28.4	17.5
[N-]=[N+]=C1N=CN=C1c1ncn[nH]1	> 100	37.5	> 100	60	> 100	–	> 100	83	56.3	40	–	–	–	–	–	–	–	–	–
C[n+]1c(-c2ccc(/C=N/NC(=N)N/N=C/c3ccc(-c4cn5cc(Cl)ccc5[n+]4C)cc3)cc2)cn2cc(Cl)ccc21	> 100	–	> 100	> 100	–	> 100 µM	> 100	> 100	–	–	–	–	–	–	–	–	–	–	–
Cc1cccc2c(=O)c([Se]c3coc4c(C)cccc4c3=O)coc12	23.9	48.4	33.3	> 100	32.2	21.3 µM	32.5	–	33.1	35.5	–	–	–	–	–	–	–	–	–
BrCCCCCOc1ccc(-c2c3ccccc3c(-c3ccc(OCCCCCBr)cc3)c3ccccc23)cc1	> 100	> 100	> 100	> 100	–	> 100 µM	> 100	> 100	> 100	–	–	–	–	–	–	–	–	–	–
CC(NC(=O)C(C)NC(=O)C(N)CCP(C)(=O)O)C(=O)O (stereo not given)	> 100	> 100	> 100	> 100	> 100	> 100 µM	> 100	–	> 100	> 100	–	–	–	–	–	–	–	–	–
CCCCC(=O)NS(=NC(=O)c1ccccc1)C(Cl)(Cl)Cl (stereo not given)	> 100	–	> 100	> 100	> 100	> 100 µM	> 100	> 100	> 100	> 100	–	–	–	–	–	–	–	–	–
CCCCCCCCOC1C(O)C(O)C(O)C(O)C12CO2 (stereo not given)	> 100	> 100	–	> 100	31.3	> 100 µM	> 100	> 100	> 100	> 100	–	–	–	–	–	–	–	–	–
N/C(=N\S(=O)(=O)c1ccc(S(=O)(=O)c2ccccc2)s1)Nc1ccc(Cl)cc1	> 100	–	40.4	88.2	90.4	33.8 µM	44	> 100	24.4	32.4	–	–	–	–	–	–	–	–	–
COC(=O)C1Cc2c(OC)ccc(OC)c2CC(C(=O)OC)C1=O (stereo not given)	> 100	> 100	> 100	> 100	85.3	> 100 µM	> 100	> 100	> 100	–	–	–	–	–	–	–	–	–	–
CC(=O)[C@@]1(C)CC2(CCN(C)CC2)OC1C (stereo not given in full)	> 100	> 100	> 100	> 100	> 100	> 100 µM	> 100	> 100	–	> 100	–	–	–	–	–	–	–	–	–
Nc1nc(SCc2ccc([N+](=O)[O-])cc2)nc2c1ncn2C1OC(COP(=O)(O)O)C(O)C1O (stereo not given)	> 100	–	> 100	> 100	> 100	> 100 µM	> 100	–	> 100	> 100	–	–	–	–	–	–	–	–	–
COC(=O)C1C/C(=C/N(C)C)C(=S)N1 (stereo not given)	> 100	> 100	> 100	> 100	> 100	35.4 µM	> 100	> 100	> 100	–	–	–	–	–	–	–	–	–	–
Cc1c(Cl)c2ccccc2n1S(=O)(=O)c1ccccc1	> 100	> 100	–	> 100	> 100	> 100 µM	> 100	–	> 100	–	–	–	–	–	–	–	–	–	–
